Measurements published in ChEMBL document CHEMBL1201862, “PubChem BioAssay data set” (2004).
Active and inactive are the calls of the source.

Tests used:
Albumin = Albumin (Bos taurus, UniProt P02769); experiment: Counterscreen for inhibitors of T-cell receptor (TCR)-CD3 interaction: Fluorescence-based biochemical high throughput dose response assay to identify inhibitors of T-cell receptor (TCR)-CD3 interaction using a TAMRA-labeled BSA probe.; type: functional
Streptokinase A = biological target: T1, Streptokinase A (Streptococcus pyogenes serotype M1, UniProt P10520); experiment: viability-normalized secreted streptokinase activity reduction – plasminogen activation absorbance, OD405, dose response (AID 1914); type: functional, Streptococcus pyogenes M1 GAS;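 further: secreted streptokinase activity via plasminogen activation per viability signal from cell pellet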
T1 sequence (P10520 whole entry): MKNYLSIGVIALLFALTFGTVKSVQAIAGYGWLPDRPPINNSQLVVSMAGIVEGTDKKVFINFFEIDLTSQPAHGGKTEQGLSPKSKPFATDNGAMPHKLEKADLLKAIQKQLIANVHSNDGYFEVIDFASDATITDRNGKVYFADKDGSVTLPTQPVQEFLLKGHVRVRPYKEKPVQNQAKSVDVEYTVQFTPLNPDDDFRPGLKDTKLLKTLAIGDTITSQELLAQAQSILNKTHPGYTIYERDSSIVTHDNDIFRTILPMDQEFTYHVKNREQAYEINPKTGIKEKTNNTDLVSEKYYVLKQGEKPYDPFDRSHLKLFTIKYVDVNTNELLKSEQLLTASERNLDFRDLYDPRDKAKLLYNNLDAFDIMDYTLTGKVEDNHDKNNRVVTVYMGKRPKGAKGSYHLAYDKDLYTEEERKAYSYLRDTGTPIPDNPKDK

[1] = system: Streptococcus sp. 'group A'; experiment: Streptococcus pyogenes SK(-)GAS viability under kanamycin – luminescence, BacTiterGlo, confirmation, counter-screen for streptokinase expression inhibitor project, dose response (AID 1900); type: functional, organism-based
Streptococcus = experiment: GAS UMAA2166 growth inhibition – luminescence, BacTiterGlo, counter-screen for streptokinase expression inhibitor project, dose response (AID 1915); type: functional, organism-based;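 further: potency for reduction of bacterial viability or growth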
fMet-Leu-Phe receptor = biological target: T2, fMet-Leu-Phe receptor (Homo sapiens, UniProt P21462); experiment: formyl peptide receptor binders – dose response (AID 519); type: functional
T2 sequence (P21462 whole entry): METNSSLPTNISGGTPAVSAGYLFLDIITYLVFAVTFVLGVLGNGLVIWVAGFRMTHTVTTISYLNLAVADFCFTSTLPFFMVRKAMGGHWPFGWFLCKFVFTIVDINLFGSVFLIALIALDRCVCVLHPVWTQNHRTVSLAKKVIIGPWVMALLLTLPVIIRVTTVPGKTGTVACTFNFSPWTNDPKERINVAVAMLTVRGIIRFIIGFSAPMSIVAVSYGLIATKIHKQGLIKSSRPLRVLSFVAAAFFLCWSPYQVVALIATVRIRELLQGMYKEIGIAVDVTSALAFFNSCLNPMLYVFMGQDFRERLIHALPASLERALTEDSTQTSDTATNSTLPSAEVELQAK

[2] = viability of HCT116 lacking mutant beta-catenin – cell-based, human colon tumor, dose response (AID 1045); type: functional;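 further: HCT116 colon tumor cells with beta catenin knocked out; cells exposed to compound for 60 hours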
[3] = viability of PTEN-deleted HCT116 cells – cell-based, HCT116 PTEN knockout, dose response (AID 1047); type: functional;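 further: HCT116 colon tumor cells with PTEN knocked out; cells exposed to compound for 60 hours before readout; potency for loss of cell viability measured by luminescence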
[4] = HGIII-sPLA2 enzyme inhibition potency – biochemical, QFRET, IC50, dose response (AID 743457);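 further: green fluorescence rise as the enzyme cleaves BODIPY PC-A2 in liposomes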
Genome polyprotein = Genome polyprotein (dengue virus type 2, UniProt P29990); experiment: flavivirus cap methylation enzyme inhibition – biochemical, confirmation dose response, primary screen (AID 588689); type: functional
Sequence of Genome polyprotein (P29990 2492-3391 limits assumed): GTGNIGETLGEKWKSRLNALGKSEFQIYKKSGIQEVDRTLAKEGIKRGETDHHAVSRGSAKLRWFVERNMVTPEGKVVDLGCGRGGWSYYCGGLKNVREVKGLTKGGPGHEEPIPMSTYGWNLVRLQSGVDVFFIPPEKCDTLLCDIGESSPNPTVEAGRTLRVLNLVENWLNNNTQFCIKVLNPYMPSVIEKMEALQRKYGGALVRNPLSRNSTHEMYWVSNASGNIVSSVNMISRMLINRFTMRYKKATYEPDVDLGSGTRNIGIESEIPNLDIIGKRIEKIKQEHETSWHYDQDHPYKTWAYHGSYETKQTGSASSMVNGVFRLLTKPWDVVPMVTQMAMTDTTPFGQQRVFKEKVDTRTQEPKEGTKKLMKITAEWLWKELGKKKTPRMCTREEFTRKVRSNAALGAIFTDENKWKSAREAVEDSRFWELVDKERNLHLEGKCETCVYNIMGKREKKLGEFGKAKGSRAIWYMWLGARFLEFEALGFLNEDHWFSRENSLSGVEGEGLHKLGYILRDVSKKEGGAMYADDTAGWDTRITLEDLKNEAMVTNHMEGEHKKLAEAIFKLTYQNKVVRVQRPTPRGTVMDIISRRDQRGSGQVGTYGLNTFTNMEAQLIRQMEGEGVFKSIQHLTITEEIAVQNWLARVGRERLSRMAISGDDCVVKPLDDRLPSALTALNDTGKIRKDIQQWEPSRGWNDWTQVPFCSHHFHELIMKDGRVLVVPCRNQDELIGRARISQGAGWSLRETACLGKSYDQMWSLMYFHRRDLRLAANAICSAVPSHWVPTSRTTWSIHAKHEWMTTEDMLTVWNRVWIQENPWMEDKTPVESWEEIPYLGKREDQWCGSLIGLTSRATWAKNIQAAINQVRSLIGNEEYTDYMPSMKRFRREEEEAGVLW

[5] = biological target: T3, Tyrosyl-DNA phosphodiesterase 2 (Homo sapiens, UniProt O95551); experiment: potency against TDP2 phosphodiesterase activity – biochemical, epi absorbance, IC50, dose response (AID 743297)
T3 sequence (O95551 whole entry): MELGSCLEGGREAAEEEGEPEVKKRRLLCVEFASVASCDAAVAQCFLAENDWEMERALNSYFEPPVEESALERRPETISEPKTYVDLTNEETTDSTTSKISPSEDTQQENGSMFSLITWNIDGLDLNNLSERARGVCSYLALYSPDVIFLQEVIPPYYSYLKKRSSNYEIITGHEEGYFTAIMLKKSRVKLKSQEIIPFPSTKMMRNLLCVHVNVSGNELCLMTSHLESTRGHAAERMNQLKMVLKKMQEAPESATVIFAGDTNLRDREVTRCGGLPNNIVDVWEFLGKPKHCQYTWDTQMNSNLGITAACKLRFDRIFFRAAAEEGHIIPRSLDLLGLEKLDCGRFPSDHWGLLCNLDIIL

Protein RecA = biological target: T4, Protein RecA (Mycobacterium tuberculosis, UniProt P9WHJ3); experiment: Fluorescence Cell-Free Homogeneous Dose Retest to Identify Inhibitors of RecA-Intein Splicing Activity. [Related pubchem assays (depositor defined):AID2097, AID2223, AID489010, AID492950]; type: functional
T4 sequence (P9WHJ3 whole entry): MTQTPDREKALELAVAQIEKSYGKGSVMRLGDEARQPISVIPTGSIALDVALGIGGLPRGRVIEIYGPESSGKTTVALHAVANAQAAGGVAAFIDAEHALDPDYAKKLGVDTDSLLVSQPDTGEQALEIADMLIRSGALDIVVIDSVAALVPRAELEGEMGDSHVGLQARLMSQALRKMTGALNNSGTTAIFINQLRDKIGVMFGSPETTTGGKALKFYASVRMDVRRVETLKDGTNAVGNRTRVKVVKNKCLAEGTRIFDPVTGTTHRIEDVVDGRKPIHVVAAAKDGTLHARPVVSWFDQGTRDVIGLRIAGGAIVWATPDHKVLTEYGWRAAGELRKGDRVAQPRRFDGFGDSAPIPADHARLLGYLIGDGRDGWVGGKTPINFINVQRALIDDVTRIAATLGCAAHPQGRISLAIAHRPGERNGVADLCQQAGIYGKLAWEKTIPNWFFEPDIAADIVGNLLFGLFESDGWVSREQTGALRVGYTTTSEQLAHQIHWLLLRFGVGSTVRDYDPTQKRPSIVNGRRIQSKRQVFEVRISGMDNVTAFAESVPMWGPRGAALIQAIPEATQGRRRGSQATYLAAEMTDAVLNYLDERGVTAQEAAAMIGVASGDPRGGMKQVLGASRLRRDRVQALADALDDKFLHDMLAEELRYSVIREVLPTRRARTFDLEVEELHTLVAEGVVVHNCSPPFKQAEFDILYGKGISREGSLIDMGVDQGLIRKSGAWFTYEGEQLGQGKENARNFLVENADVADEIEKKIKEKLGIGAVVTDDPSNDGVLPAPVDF

[6] = biological target: T5, Replicative DNA helicase DnaB (Mycobacterium tuberculosis, UniProt P9WMR3); experiment: DnaB intein splicing inhibitors, dose response, biochemical, cell-free fluorescence (AID 449749); type: functional
T5 sequence (P9WMR3 whole entry): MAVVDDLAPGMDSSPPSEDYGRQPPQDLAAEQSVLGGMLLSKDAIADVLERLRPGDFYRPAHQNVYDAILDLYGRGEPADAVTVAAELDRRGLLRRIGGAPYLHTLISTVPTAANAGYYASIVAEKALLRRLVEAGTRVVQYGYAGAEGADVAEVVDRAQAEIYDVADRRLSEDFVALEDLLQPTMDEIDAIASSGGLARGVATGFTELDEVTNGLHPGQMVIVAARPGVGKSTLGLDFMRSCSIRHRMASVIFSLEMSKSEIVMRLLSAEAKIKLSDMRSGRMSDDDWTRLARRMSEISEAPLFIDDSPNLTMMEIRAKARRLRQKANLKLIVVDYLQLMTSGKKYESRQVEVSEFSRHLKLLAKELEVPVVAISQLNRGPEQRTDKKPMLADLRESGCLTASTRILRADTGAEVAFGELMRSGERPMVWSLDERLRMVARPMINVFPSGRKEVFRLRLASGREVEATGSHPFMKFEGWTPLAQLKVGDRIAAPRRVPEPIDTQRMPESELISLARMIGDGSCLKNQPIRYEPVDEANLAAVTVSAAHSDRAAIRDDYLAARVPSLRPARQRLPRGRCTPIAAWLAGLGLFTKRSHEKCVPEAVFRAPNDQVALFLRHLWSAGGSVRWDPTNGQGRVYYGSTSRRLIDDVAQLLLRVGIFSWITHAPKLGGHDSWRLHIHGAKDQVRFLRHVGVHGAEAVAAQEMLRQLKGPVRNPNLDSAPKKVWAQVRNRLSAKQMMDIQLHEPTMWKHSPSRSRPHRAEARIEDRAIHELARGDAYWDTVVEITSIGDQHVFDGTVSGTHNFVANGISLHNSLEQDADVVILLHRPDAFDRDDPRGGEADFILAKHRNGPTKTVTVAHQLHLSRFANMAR

[7] = biological target: T6, Histone-lysine N-methyltransferase NSD2 (Homo sapiens, UniProt O96028); type: biochemical
T6 sequence (O96028 whole entry): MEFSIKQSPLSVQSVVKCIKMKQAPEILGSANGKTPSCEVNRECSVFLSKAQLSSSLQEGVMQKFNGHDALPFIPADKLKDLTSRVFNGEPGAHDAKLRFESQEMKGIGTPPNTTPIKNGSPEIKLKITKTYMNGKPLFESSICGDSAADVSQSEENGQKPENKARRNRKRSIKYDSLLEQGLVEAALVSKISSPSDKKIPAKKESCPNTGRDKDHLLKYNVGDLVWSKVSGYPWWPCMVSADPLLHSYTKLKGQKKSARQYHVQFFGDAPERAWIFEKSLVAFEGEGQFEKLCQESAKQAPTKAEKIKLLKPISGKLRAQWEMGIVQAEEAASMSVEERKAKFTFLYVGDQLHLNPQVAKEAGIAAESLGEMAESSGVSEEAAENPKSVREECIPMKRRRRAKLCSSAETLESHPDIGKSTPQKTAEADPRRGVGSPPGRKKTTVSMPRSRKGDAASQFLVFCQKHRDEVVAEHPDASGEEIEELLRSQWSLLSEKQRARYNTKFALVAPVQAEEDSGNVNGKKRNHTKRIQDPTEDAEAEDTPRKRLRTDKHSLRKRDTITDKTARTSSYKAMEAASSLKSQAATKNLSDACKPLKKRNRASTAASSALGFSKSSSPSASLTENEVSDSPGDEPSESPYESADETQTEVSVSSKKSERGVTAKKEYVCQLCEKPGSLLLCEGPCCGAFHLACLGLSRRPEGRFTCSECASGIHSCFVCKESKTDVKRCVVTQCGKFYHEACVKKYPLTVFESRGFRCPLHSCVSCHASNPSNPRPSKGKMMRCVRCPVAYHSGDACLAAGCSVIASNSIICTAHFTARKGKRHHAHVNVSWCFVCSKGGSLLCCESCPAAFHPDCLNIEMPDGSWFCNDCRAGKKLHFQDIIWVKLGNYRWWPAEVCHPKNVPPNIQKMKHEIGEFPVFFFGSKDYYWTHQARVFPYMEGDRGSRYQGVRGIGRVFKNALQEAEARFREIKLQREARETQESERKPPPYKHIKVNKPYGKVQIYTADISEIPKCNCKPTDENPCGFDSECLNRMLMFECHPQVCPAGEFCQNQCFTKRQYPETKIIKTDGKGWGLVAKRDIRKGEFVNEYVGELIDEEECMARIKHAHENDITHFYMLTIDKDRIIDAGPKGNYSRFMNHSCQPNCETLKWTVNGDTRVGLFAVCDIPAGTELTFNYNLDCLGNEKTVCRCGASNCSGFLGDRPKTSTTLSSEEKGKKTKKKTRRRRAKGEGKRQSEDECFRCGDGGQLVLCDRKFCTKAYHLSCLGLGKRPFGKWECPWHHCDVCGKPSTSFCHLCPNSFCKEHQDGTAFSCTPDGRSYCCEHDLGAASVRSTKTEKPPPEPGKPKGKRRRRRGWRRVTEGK

Paired box protein Pax-8 = Paired box protein Pax-8 (Homo sapiens, UniProt Q06710); experiment: PAX8 transcriptional activity inhibition in RMG-I – RMG-I cells, luciferase, cherry-pick, dose response (AID 687027); type: functional, cell-based;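 further: luciferase reporter driven by Pax8 target thyroperoxidase promoter measured by SteadyGlo luminescence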
Sequence of Paired box protein Pax-8 (Q06710 whole entry): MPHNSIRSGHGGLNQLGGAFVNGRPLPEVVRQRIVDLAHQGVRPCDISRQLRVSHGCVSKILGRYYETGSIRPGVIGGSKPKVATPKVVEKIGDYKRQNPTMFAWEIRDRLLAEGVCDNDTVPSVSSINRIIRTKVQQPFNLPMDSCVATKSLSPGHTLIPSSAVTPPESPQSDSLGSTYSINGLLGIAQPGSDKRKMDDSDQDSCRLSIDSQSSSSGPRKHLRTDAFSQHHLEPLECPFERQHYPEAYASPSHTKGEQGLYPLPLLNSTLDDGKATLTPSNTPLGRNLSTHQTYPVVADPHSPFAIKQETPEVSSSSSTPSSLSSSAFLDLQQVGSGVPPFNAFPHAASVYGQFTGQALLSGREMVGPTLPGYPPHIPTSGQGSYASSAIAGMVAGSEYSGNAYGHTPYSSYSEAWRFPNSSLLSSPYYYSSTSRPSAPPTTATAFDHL

[8] = OVCAR-3 cell viability loss – plate reader, dry powder samples, PAX8 inhibitor project, dose response (AID 743044); type: functional, cell-based
[9] = IGROV1 cell killing – plate reader, dry powder samples, PAX8 inhibitor project, dose response (AID 743043); type: functional, cell-based; conditions: IGROV-1
[10] = A549 cell cytotoxicity, dose response, cytotoxicity control, plate reader, cherry-pick, antagonist series (AID 743412); type: functional, cell-based
[11] = toxicity toward HepG2 liver cells – cell-based, plate reader, cherry-pick, antagonist series, cytotoxicity control, dose response (AID 743416); type: functional
[12] = blockade of melanocortin 4 receptor signaling – cell-based, plate reader, cherry pick, counter-screen for LGR2 antagonist project, dose response (AID 743444); type: functional;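 further: transfected HEK 293 cells stimulated with alpha-MSH peptide; potency of inhibitors of the alpha-MSH evoked signal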
[13] = blockers of bursicon-stimulated LGR2 cAMP reporter – cell-based, HEK293, CRE-luciferase reporter, cherry pick, set 2, dose response (AID 743343); type: functional;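 further: transfected cells were stimulated with diluted bursicon conditioned medium after compound addition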

Sequence of Albumin (P02769 whole entry): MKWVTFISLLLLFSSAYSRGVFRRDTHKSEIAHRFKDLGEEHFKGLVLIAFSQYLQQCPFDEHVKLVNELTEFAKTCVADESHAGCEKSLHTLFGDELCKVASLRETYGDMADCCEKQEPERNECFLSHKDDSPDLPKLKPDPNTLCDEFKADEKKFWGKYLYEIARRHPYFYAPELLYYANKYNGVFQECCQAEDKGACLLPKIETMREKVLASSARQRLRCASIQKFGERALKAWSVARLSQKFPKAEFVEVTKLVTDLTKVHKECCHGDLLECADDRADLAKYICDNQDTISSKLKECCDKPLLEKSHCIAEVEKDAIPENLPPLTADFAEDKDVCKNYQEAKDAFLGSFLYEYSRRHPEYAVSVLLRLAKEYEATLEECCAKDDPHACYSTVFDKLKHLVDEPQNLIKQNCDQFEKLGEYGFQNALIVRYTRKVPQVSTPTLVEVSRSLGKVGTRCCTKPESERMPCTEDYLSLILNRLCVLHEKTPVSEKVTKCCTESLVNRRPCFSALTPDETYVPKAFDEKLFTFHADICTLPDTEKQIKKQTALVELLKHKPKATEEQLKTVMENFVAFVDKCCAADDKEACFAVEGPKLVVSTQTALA

Structure (SMILES): CCCCCC(=O)NC(=S)NC1C2CC3CC(C2)CC1C3 (configuration not stated)
- IC50 (Albumin): > 94.1 µM (inactive)
- EC50 (Streptokinase A): 11.5 µM (active)
- EC50 [1]: 3.42 µM (active)
- EC50 (Streptococcus): 27.9 µM (active)

Structure (SMILES): COCCCN1C(=O)C(O)=C(C(=O)c2ccccc2)C1c1ccc2c(c1)OCO2 (configuration not stated)
- Ki (fMet-Leu-Phe receptor): 29.6 µM (inactive)

Structure (SMILES): Cc1ccc(C)c(N2CCN(S(=O)(=O)c3c(C)noc3/C=C/N(C)C)CC2)c1
- EC50 [2]: 32.6 µM (active)
- EC50 [3]: 26.5 µM (active)
- IC50 [4]: > 122 µM (inactive)

Structure (SMILES): Cc1ccc(N=C(S)NNC(=O)c2ccccc2O)c(C)c1
- IC50 [4]: > 122 µM (inactive)

Structure (SMILES): COc1cccc(C(c2c(C)nn(-c3ccccc3)c2O)c2c(C)nn(-c3ccccc3)c2O)c1OC
- IC50 (Genome polyprotein): 61.1 µM (active)
- IC50 [5]: 24.7 µM (inactive)
- EC50 (Protein RecA): 0.81 µM (active)
- AC50 [6]: 1.25 µM (active)

Structure (SMILES): Cc1oc2cc(O)cc(O)c2c(=O)c1-c1ccc2c(c1)OCCCO2
- Ki (fMet-Leu-Phe receptor): > 66.7 µM (inactive)

Structure (SMILES): O=C1Nc2c(Cl)cccc2C1=O
- AC50 [7]: 9.86 µM (active)

Structure (SMILES): C[C@H](CO)N1C[C@H](C)[C@@H](CN(C)Cc2ccccc2)Oc2ccc(NC(=O)Nc3ccc(C(F)(F)F)cc3)cc2CC1=O
- AC50 (Paired box protein Pax-8): 9.3 µM (active)
- AC50 [8]: 51.8 µM (active)
- AC50 [9]: 46.6 µM (active)

Structure (SMILES): N#C[C@@H]1[C@H](c2ccc(C#Cc3ccccc3F)cc2)[C@@H](CO)N1C(=O)C1CCCC1
- AC50 [10]: > 52 µM (inactive)
- AC50 [11]: 39.6 µM (active)
- AC50 [12]: 6.34 µM (active)
- AC50 [13]: 8.84 µM (active)
